For orientation: EC50 means the concentration at which the effect is half-maximal.

The first experiment concerns the target T1, human TLR8 (Homo sapiens, UniProt Q9NR97).
T1 construct: host or cells: HEK-Blue hTLR8 (HEK293-derived reporter cells)
T1 sequence (Q9NR97 27-1041): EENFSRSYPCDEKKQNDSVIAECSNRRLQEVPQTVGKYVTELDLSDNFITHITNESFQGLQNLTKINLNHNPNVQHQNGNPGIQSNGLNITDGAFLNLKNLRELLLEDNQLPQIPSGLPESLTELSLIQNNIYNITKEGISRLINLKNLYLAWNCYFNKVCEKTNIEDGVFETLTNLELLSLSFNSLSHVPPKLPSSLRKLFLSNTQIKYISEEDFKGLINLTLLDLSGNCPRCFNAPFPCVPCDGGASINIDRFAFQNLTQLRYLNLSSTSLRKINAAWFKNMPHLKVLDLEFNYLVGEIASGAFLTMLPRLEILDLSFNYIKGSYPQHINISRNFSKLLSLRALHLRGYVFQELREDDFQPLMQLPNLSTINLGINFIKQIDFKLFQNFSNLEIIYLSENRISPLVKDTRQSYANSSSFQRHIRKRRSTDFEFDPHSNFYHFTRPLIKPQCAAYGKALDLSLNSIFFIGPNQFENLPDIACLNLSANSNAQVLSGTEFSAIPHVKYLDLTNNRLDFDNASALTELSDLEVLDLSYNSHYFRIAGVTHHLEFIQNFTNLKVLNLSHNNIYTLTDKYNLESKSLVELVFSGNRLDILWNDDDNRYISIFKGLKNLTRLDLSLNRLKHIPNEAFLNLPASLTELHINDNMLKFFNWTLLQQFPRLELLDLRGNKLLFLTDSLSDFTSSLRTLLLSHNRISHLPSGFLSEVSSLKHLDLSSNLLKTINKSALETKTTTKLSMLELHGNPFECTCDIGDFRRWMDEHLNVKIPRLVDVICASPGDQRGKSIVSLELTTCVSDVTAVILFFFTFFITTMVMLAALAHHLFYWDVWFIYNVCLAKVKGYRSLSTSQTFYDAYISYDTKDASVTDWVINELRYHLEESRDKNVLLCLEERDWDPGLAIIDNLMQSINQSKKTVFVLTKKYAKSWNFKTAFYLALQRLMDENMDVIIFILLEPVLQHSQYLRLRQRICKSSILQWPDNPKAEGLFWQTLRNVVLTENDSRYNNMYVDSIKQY
In words: HEK-Blue hTLR8 SEAP reporter gene agonist assay. Particulars: HEK-Blue hTLR8 cells, 16 to 22 hours incubation. The experiment is classed as cell-based. The protocol:
(§1) HEK-Blue™ cells that stably express human TLR7 or TLR8 are used to evaluate the agonistic activity of the compounds on TLR7 or TLR8, which is determined by the induction of the expression of SEAP reporter gene under the control of minimum IFN-β promoter fusion to 5×NF-κB and AP-1 binding sites. The assay is conducted as below:
(§2) HEK-Blue™ hTLR7 (Invivogen, 80,000 cells per well) or HEK-Blue™ hTLR8 (Invivogen, 60,000 cells per well) were added to the 96-well cell culture plate, followed by adding of the test compound. The final concentration of the test compound in the medium ranged from […], and was incubated for 16 to 22 hours. According to the manufacturer's instructions, the HEK-Blue assay reagent Quanti-blue (Invivogen) was used to measure SEAP levels in cell media. Optical density at 650 nm (OD650) was measured by Neo2 multifunction plate reader (Bio-tek). The half effective concentration (EC50) was calculated using GraphPad Prism.
For orientation: In a reporter assay the amount or activity of a reporter protein is the signal.
Turning to `CCCC(C)Nc1nc(N)nc2ccn(Cc3ccc(CN4CCCC4)cc3)c(=O)c12` (stereo not drawn) [Compound I-12, 2-amino-4-(pentan-2-ylamino)-6-(4-(pyrrolidin-1-ylmethyl)benzyl)pyrido[4,3-d]pyrimidin-5(6H)-one], the EC50 was determined as 97 nM.

The compound `CCCCNc1nc(N)nc2ccn(Cc3ccc(C(=O)N4CC5CC(C4)N5)cc3)c(=O)c12` [Compound I-19, 6-(4-(3,6-diazabicyclo[3.1.1]heptane-3-carbonyl)benzyl)-2-amino-4-(butylamino)pyri do[4,3-d]pyrimidin-5(6H)-one] showed an EC50 of 55 nM.

For the compound `COCCNc1nc(N)nc2ccn(Cc3ccc(CN4CCCC4)cc3)c(=O)c12` [Compound I-21, 2-amino-4-((2-methoxyethyl)amino)-6-(4-(pyrrolidin-1-ylmethyl)benzyl)pyrido[4,3-d]pyrimidin-5(6H)-one], it took 51 nM to reach a half-maximal effect (EC50). This EC50 and that of the compound before are within 1.5-fold of each other.

`CCCCNc1nc(N)nc2ccn(Cc3ccc(CN4CCCC4)c(F)c3)c(=O)c12` [Compound I-27, 2-amino-4-(butylamino)-6-(3-fluoro-4-(pyrrolidin-1-ylmethyl)benzyl)pyrido[4,3-d]pyrimidin-5(6H)-one] displayed an EC50 of 95 nM.

In the case of `CCCCNc1nc(N)nc2ccn(Cc3ccc(CNCCO)cc3)c(=O)c12` [Compound I-34, 2-amino-4-(butylamino)-6-(4-(((2-hydroxyethyl)amino)methyl)benzyl)pyrido[4,3-d]pyrimidin-5(6H)-one], the EC50 was 45 nM.

`CCCCNc1nc(N)nc2ccn(Cc3ccc(CN(CCO)CCO)cc3)c(=O)c12` [Compound I-50, 2-amino-6-(4-((bis(2-hydroxyethyl)amino)methyl)benzyl)-4-(butylamino)pyrido[4,3-d]pyrimidin-5(6H)-one] displayed an EC50 of 51 nM.

For the compound `CCCCNc1nc(N)nc2ccn(Cc3ccc(CN4CCCC4)cn3)c(=O)c12` [Compound I-128, 2-amino-4-(butylamino)-6-((5-(pyrrolidin-1-ylmethyl)pyridin-2-yl)methyl)pyrido[4,3-d]pyrimidin-5(6H)-one], the response was half-maximal at 66 nM (EC50).

`CCCCNc1nc(N)nc2ccn(Cc3cnc(CN4CCCC4)cn3)c(=O)c12` [Compound I-129, 2-amino-4-(butylamino)-6-((5-(pyrrolidin-1-ylmethyl)pyrazin-2-yl)methyl)pyrido[4,3-d]pyrimidin-5(6H)-one] returned an EC50 of 77 nM.

Regarding `CCC[C@@H](C)Nc1nc(N)nc2ccn(Cc3ccc(CN(CCC)CCO)cc3)c(=O)c12` [Compound I-140, (R)-2-amino-6-(4-(((2-hydroxyethyl)(propyl)amino)methyl)benzyl)-4-(pentan-2-ylamino)pyrido[4,3-d]pyrimidin-5(6H)-one], the EC50 amounted to 30 nM.

`CCC[C@@H](C)Nc1nc(N)nc2ccn(Cc3ccc(CN4CC5(COC5)C4)nc3OC)c(=O)c12` [Compound I-188, (R)-6-((6-((2-oxa-6-azaspiro[3.3]heptan-6-yl)methyl)-2-methoxypyridin-3-yl)methyl)-2-amino-4-(pentan-2-ylamino)pyrido[4,3-d]pyrimidin-5(6H)-one] had an EC50 of 29 nM.

As to `CCC[C@@H](CO)Nc1nc(N)nc2ccn(Cc3ccc(CN4CCNCC4)cc3OC)c(=O)c12` [Compound I-191, (S)-2-amino-4-((1-hydroxypentan-2-yl)amino)-6-(2-methoxy-4-(piperazin-1-ylmethyl)benzyl)pyrido[4,3-d]pyrimidin-5(6H)-one], the EC50 came to 18 nM.

With `CCC[C@@H](CO)Nc1nc(N)nc2ccn(Cc3ccc(CN4CCN(CCN)CC4)cc3OC)c(=O)c12` [Compound I-207, (S)-2-amino-6-(4-((4-(2-aminoethyl)piperazin-1-yl)methyl)-2-methoxybenzyl)-4-((1-hydroxypentan-2-yl)amino)pyrido[4,3-d]pyrimidin-5(6H)-one], it took 44 nM to reach a half-maximal effect (EC50).

As to `CCC[C@@H](CO)Nc1nc(N)nc2ccn(Cc3ccc(CN(C)CCN)cc3OC)c(=O)c12` [Compound I-208], the EC50 was 70 nM. This EC50 lies about 1.6-fold higher than the previous one.

`CCCCCCCCCC(=O)OC[C@H](CCC)Nc1nc(N)nc2ccn(Cc3ccc(CN4CCN(C)CC4)cc3OC)c(=O)c12` [Compound I-221] displayed an EC50 of 30 nM.

As for `CCCCCCCCCCCCCCCC(=O)OC[C@H](CCC)Nc1nc(N)nc2ccn(Cc3ccc(CN4CCN(C)CC4)cc3OC)c(=O)c12` [Compound I-222], the midpoint of the response, the EC50, lay at 9 nM.

For the compound `CCCCOC(=O)OC[C@H](CCC)Nc1nc(N)nc2ccn(Cc3ccc(CN4CCN(C)CC4)cc3OC)c(=O)c12` [Compound I-226], the EC50 was 73 nM.

Another experiment addresses T2, human TLR7 (Homo sapiens, UniProt Q9NYK1).
T2 construct: host or cells: HEK-Blue hTLR7 (HEK293-derived reporter cells)
T2 sequence (Q9NYK1 27-1049): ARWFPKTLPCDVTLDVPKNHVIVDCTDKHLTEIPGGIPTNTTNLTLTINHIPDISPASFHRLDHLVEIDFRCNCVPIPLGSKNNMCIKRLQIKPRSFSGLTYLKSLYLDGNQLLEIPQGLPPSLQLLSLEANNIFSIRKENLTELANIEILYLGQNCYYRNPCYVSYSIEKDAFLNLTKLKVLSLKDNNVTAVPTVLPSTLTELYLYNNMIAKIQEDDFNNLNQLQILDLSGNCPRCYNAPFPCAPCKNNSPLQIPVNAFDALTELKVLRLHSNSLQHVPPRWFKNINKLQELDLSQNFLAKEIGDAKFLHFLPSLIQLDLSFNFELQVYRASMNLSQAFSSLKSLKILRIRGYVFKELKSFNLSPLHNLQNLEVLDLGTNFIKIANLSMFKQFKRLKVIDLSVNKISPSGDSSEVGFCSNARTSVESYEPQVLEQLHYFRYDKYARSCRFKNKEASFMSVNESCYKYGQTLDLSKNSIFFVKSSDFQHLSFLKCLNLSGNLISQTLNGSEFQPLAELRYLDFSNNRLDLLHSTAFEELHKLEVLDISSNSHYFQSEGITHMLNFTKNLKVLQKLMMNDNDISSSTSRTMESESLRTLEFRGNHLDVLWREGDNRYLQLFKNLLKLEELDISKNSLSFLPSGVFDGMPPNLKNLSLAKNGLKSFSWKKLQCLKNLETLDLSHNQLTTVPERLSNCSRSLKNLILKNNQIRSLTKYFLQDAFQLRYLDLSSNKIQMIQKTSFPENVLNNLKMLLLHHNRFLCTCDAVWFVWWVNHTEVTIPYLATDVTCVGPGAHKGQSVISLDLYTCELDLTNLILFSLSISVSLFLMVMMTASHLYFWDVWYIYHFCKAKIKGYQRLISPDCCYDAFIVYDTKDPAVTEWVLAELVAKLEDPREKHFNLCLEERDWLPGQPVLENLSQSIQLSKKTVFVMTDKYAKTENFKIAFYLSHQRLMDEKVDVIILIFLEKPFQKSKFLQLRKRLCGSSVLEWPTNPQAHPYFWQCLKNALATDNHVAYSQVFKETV
The experiment is described as follows: HEK-Blue hTLR7 SEAP reporter gene agonist assay. The experiment is classed as cell-based. Particulars: HEK-Blue hTLR7 cells, 16 to 22 hours incubation. The protocol: as §1, §2
Take `CCCCNc1nc(N)nc2ccn(Cc3ccc(C(=O)N4CCN(C)CC4)cc3)c(=O)c12` [Compound I-63, 2-amino-4-(butylamino)-6-(4-(4-methylpiperazine-1-carbonyl)benzyl)pyrido[4,3-d]pyrimidin-5(6H)-one]: the EC50 was 82 nM. This lies in the double-digit nanomolar range.

On to `CCCCNc1nc(N)nc2ccn(Cc3ccc(CN4CCCC4)nc3OC)c(=O)c12` [Compound I-64, 2-amino-4-(butylamino)-6-((2-methoxy-6-(pyrrolidin-1-ylmethyl)pyridin-3-yl)methyl)pyrido[4,3-d]pyrimidin-5(6H)-one], for which the EC50 was found to be 67 nM. The EC50 values of the last two compounds are within 1.5-fold of each other.

Turning to `CCCCNc1nc(N)nc2ccn(Cc3ccc(C(=O)N4CCN(C)CC4)cc3OC)c(=O)c12` [Compound I-73, 2-amino-4-(butylamino)-6-(2-methoxy-4-(4-methylpiperazine-1-carbonyl)benzyl)pyrido[4,3-d]pyrimidin-5(6H1)-one], the EC50 was found to be 41 nM.

As to `CCCC(CCC)Nc1nc(N)nc2ccn(Cc3ccc(C(=O)N4CCN(C)CC4)cc3)c(=O)c12` [Compound I-114, 2-amino-4-(heptan-4-ylamino)-6-(4-(4-methylpiperazine-1-carbonyl)benzyl)pyrido[4,3-d]pyrimidin-5(6H)-one], the 50% effective concentration (EC50) came to 86 nM.

As for `CCCC(CCC)Nc1nc(N)nc2ccn(Cc3ccc(C(=O)N4CCN(C)CC4)cc3OC)c(=O)c12` [Compound I-133, 2-amino-4-(heptan-4-ylamino)-6-(2-methoxy-4-(4-methylpiperazine-1-carbonyl)benzyl)pyrido[4,3-d]pyrimidin-5(6H)-one], the response was half-maximal at 70 nM (EC50).

For the origin of these results see patent US20250059183A1, “PYRIDINE[4,3-D]PYRIMIDINE COMPOUND AS TLR7/8 AGONIST” (SHANGHAI VISONPHARMA CO., LTD., priority 2021, published 2025).
